According to patent US8541581B2, “Inhibitors of fatty acid amide hydrolase” (Infinity Pharmaceuticals, Inc., priority 2009, dated 2013):

Biological target: T1, human FAAH (Homo sapiens, UniProt O00519)
T1 construct: host or cells: COS-7 cells, transient transfection; 13,000 g membrane fraction solubilized in 1% Triton X-100
T1 sequence (O00519 1-579): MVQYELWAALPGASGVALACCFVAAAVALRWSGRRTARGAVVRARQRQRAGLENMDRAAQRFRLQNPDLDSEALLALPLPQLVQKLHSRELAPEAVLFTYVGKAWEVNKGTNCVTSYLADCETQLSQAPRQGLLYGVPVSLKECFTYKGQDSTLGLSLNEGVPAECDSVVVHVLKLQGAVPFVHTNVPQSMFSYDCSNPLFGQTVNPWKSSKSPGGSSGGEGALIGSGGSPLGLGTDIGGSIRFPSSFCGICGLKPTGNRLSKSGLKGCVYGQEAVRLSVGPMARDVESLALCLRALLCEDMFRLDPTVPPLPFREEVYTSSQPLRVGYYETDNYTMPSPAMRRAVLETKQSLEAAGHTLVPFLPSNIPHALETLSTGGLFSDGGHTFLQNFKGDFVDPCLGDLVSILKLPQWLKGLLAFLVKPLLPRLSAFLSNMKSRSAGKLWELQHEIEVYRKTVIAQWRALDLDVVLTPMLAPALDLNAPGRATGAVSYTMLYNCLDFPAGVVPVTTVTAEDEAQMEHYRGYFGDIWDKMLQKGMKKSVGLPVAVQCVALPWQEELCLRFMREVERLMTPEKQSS
Assay: Human FAAH fluorescence-based inhibition assay (AMC Arachidonoyl Amide hydrolysis)
Type: biochemical
Conditions: human FAAH from transfected COS-7 cells; 20 μM AMC-Arachidonoyl substrate; 30 min preincubation, 4 hours at room temperature
Procedure: Exemplary compounds are set forth in the Examples provided below. Compounds were assayed as inhibitors of human FAAH using the method described in detail in Example 19.
The following assays can be used to determine the inhibition of FAAH: (1) a fluorescence-based assay (Manjunath et al., Analytical Biochemistry (2005) 343:143-151); and (2) a microsome-based fluorescent assay (Wang et al., Biomolecular Screening (2006) 1-9).
COS-7 cells were split the day before, 1:5 into 150 mm×25 mm cell culture dishes (Corning Inc., Cat. No. 430599). Transient transfection took place at 30-40% confluency according to FuGENE 6 Transfection Reagent (Roche, Cat. No. 11814 443 001).
The FuGENE transfection 6 reagent (45 uL) was added to 1410 μL of media (DMEM, serum free without pen/strep) in a 15 mL conical tube and incubated at room temp for 5 minutes, followed by the addition of FAAH plasmid DNA ([…]) (OriGene Cat. No. TC119221, Genbank Accession No. NM_001441.1, 0.67 ug/uL) and a further incubation of 15 minutes at room temperature. The resulting solution was added into one dish of 30-40% confluent COS-7 cells in a drop-wise manner. The COS-7 cell dish was subsequently incubated for 48 hours. The cells were then harvested.
Media was aspirated from the dishes and the cells rinsed with 10 mL PBS. The PBS was removed and 3 mL of PBS added to the dish. The dish was scraped to resuspend the cells, and the subsequent cell suspension collected into a 15 mL conical tube. The cells were pelleted by centrifugation at 1200 rpm for 5 minutes in a bench top centrifuge. PBS was removed and the cell pellet snap frozen in liquid nitrogen and stored at −80° C.
COS-7 Cells—FAAH Purification: • (1) Fractionation: Frozen cell pellets from transient transfections were thawed on ice and resuspended in 12.5 mM Hepes pH 8.0, 100 mM NaCl, 1 mM EDTA (10 mL/0.2 g cell pellet). The pellets were dounce homogenized and then sonicated to produce cell extract. The cell extract was subsequently centrifuged at 1000 g to remove cellular debris. The pellet was discarded and the supernatant centrifuged at 13,000 g for 20 minutes. The pellet contained membrane bound FAAH. The supernatant was discarded and the pellet resolubilized. • (2) Re-solubilization: The fraction of interest, (13,000 g, membrane fraction) was re-suspended in 2.3 mL re-suspension buffer (20 mM Hepes pH 7.8, 10% v/v Glycerol, 1 mM EDTA, 1% Triton X-100) and the sample incubated on ice for 1 hour and then centrifuged to remove any particulate matter. The supernatant containing solubilized human FAAH was aliquoted and snap frozen in liquid nitrogen and stored at −80° C. until use. • (3) Characterization: Protein Concentration determined by Bradford assay. • SDS gel and Western blot to confirm presence of FAAH • FAAH activity assay • Km determination—96-well assay • Linear dependence—96-well assay • Standard compound Ki determination—384-well assay
Rat FAAH biochemical assays were carried out in a 96 well flat bottom black non-treated polystyrene plates (Corning Costar Catalogue #3915). FAAH reaction buffer: 50 mM Hepes (pH 7.5), 1 mM EDTA, 0.2% Triton X-100. FAAH substrate-AMC Arachidonoyl Amide (Cayman Chemicals Company, Catalog #10005098). The reaction was read in an Envision microtiter plate reader [Excitation filter 355 nm (40 nm bandpass); Emission filter 460 nm (25 nm bandpass)]. The raw fluorescence was plotted on the y axis and the inhibitor concentration on the x axis to give a dose response inhibition curve. The data was fitted to a single site competitive inhibition equation, fixing the Km for the rat and human enzyme to 12 μM and 9 μM respectively.
The principle of this assay was the hydrolysis of AMC-Arichodonoyl, a fluorescent analogue of Anandamide, which results in the formation of Arachidonic acid and AMC. The formation of AMC results in an increase in fluorescence (see, for example, Manjunath et al., Analytical Biochemistry (2005) 343:143-151; and Wang et al., Biomolecular Screening (2006) 1-9). […]

Row | Structure (SMILES) | Ki [nM]
1 | O=C(NCc1ccccc1)N1CC=C(B(O)O)CC1 [Example 7] | 10 to 100
2 | O=C(CCCCc1ccccc1)N1CCC(B(O)O)CC1 [Example 10] | 10 to 100
3 | O=C(OCc1ccccc1)N1CCC(B(O)O)CC1 [Example 9] | 10 to 100
4 | Cc1c(CC(=O)N2CC=C(B(O)O)CC2)sc2ccccc12 [Example 6] | 10 to 100
5 | O=C(CNCc1ccccc1)N1CCC(B(O)O)CC1 [Example 14] | > 1000
6 | CC(C)(C)OC(=O)N1CCC(B(O)O)CC1 [Example 8] | 10 to 100
7 | O=C(c1ccc(Cl)cc1)N1CC=C(B(O)O)CC1 [Example 4] | 10 to 100
8 | Cc1c(CN2CCC(B(O)O)CC2)sc2ccccc12 [Example 18] | 10 to 100
9 | O=C(c1cnc2ccccc2c1)N1CCC(B(O)O)CC1 [Example 12] | 100 to 1000

Now from value to compound:

Row | Ki [nM] | Structure (SMILES)
10 | > 1000 | O=C([C@H]1CCCN1)N1CCC(B(O)O)CC1 [Example 15]
11 | 100 to 1000 | CC(C)(C)OC(=O)N1CC=C(B(O)O)CC1 [Example 1]
12 | 100 to 1000 | O=C(c1ccc2ccccc2n1)N1CCC(B(O)O)CC1 [Example 13]
13 | 10 to 100 | Cc1c(C(=O)N2CC=C(B(O)O)CC2)sc2ccccc12 [Example 5]
14 | 100 to 1000 | O=C(c1ccc(Cl)cc1)N1CCC(B(O)O)CC1 [Example 11]
15 | > 1000 | OB(O)C1CCN(Cc2ccccc2)CC1 [Example 17]
16 | 100 to 1000 | Cc1ccc(S(=O)(=O)N2CCC(B(O)O)CC2)cc1 [Example 16]
17 | > 1000 | CC(=O)N1CC=C(B(O)O)CC1 [Example 3]
18 | 10 to 100 | O=C(OCc1ccccc1)N1CC=C(B(O)O)CC1 [Example 2]
